The text below walks through data of ChEMBL document CHEMBL4823243, “Synergistic induction of apoptosis in resistant head and neck carcinoma and leukemia by alkoxyamide-based histone deacetylase inhibitors” (Eur J Med Chem, 2021).

The IC50 is the midpoint of a concentration-inhibition curve.

Activity calls are given as the source filed them. No cut-off for these calls is given here.

The subject of assay [1] is HL-60. Briefly: Induction of apoptosis in human HL-60 cells assessed as caspase 3/7 activation incubated for 48 hrs by Caspase3/7 detection reagent based assay. It counts as functional, cell-based. Conditions: HL-60, 48 h.
The target of assay [2] is T1, Histone deacetylase (Homo sapiens) (UniProt Q13547+O15379+Q9UBN7+Q92769+Q9UQL6+Q8WUI4+Q9BY41+Q96DB2+P56524+Q9UKV0+Q969S8). Briefly: Inhibition of HDAC in human Cal27CisR cells assessed as combination index at 1 uM measured in presence of 50 uM cDDP by MTT-based Chou-Talalay method. It counts as cell-based.
The target in assay [3] is T1, Histone deacetylase (Homo sapiens). Briefly: Inhibition of HDAC in human Cal27CisR cells assessed as combination index at 3 uM measured in presence of 10 uM cDDP by MTT-based Chou-Talalay method. It counts as cell-based.
Assay [4] has as its target Histone deacetylase. Briefly: Inhibition of HDAC in human CAL-27 cells assessed as potentiation of cisplatin-induced cytotoxicity by measuring cisplatin IC50 at 2 to 3 uM pretreated for 48 hrs followed by cisplatin addition and measured after 72 hrs by MTT assay (reference value: 3.57 uM). The assay is classed as cell-based. On the technique in general: Tetrazolium dyes change colour on reduction, which living cells bring about.

The test system of assay [5] is CAL-27. Briefly: Induction of apoptosis in cisplatin resistant human CAL-27 cells assessed as caspase 7 activation at 2 uM in presence cisplatin of pretreated for 24 hrs followed by cisplatin treatment and further incubated for 18 hrs by Caspase3/7 detection reagent based assay. The assay is classed as functional, cell-based. Conditions: time 42.0 hrs.
Assay [6] has as its target T1, Histone deacetylase (Homo sapiens). Briefly: Inhibition of HDAC in human Cal27CisR cells assessed as combination index at 1 uM measured in presence of 20 uM cDDP by MTT-based Chou-Talalay method. The assay is classed as cell-based.
For assay [7] the target is unchanged. Briefly: Inhibition of HDAC in human CAL-27 cells assessed as combination index at 2 uM measured in presence of 10 uM cDDP by MTT-based Chou-Talalay method. It counts as cell-based.
The target in assay [8] is Histone deacetylase. Briefly: Inhibition of HDAC in human Cal27CisR cells assessed as potentiation of cisplatin-induced cytotoxicity by measuring cisplatin IC50 at 2 to 3 uM pretreated for 48 hrs followed by cisplatin addition and measured after 72 hrs by MTT assay (reference value: 3.57 uM). It counts as cell-based.
The target of assay [9] is T1, Histone deacetylase (Homo sapiens). Briefly: Inhibition of HDAC in human Cal27CisR cells assessed as combination index at 3 uM measured in presence of 50 uM cDDP by MTT-based Chou-Talalay method. It counts as cell-based.
The target is the same in assay [10]. Briefly: Inhibition of HDAC in human Cal27CisR cells assessed as combination index at 1.5 uM measured in presence of 20 uM cDDP by MTT-based Chou-Talalay method. The assay is classed as cell-based.
Assay [11] concerns CAL-27. Briefly: Induction of apoptosis in human CAL-27 cells assessed as caspase 3 activation at 2 uM in presence of pretreated for 24 hrs followed by cisplatin treatment and further incubated for 18 hrs by Caspase3/7 detection reagent based assay. It counts as functional, cell-based. The conditions noted are these: time 42.0 hrs.
Assay [12] addresses T1, Histone deacetylase (Homo sapiens). Briefly: Inhibition of HDAC in human CAL-27 cells assessed as combination index at 2 uM measured in presence of 5 uM cDDP by MTT-based Chou-Talalay method. The assay is classed as cell-based.

`O=C(CCCCCONC(=O)c1ccc2ccccc2n1)NO`: the IC50 in [1] is 214 nM.

For the molecule `O=C(CCCCCONC(=O)c1nccc2ccccc12)NO`, the CI in [2] came to 0.47; in assay [3], 0.24; in assay [6], 1.42; in assay [7], 0.14; in [9] it was 0.39; in assay [10], 0.55. Besides, the CI in [12] was determined as 0.2. Further, the figures for the IC50 in [4] and in assay [8] were 1100 nM and 4840 nM, respectively. In addition, the outcome in assay [5] and in assay [11] was Active.
